{
  "source": "patent US11466044B2",
  "about": "(WAYNE STATE UNIVERSITY, priority 2017, dated 2022)",
  "key": {"[1]": {"tested_on": "cytosolic ribosome (human chimeric)", "assay_type": "biochemical", "excerpt": "(§1) The antiribosomal activity of these compounds was investigated with cell-free translation assays using both wild type bacterial ribosomes and hybrid ribosomes carrying eukaryotic decoding A sites enabling the prediction of selectivity."}, "[2]": {"tested_on": "mitochondrial ribosome (human chimeric)", "assay_type": "biochemical", "excerpt": "as §1"}, "M. smegmatis SZ380": {"tested_on": "M. smegmatis SZ380", "experiment": "MIC by broth microdilution, M. smegmatis", "conditions": "Mycolicibacterium smegmatis"}, "[3]": {"tested_on": "wild type bacterial ribosomes", "experiment": "in-vitro translation assay, bacterial ribosomes", "assay_type": "biochemical", "excerpt": "as §1"}, "[4]": {"tested_on": "Klebsiella pneumonia AG215", "experiment": "MIC by broth microdilution, Klebsiella pneumonia", "assay_type": "cell-based", "conditions": "Klebsiella pneumoniae; strain AG215 Klebsiella pneumonia; read-out: MIC AG215 K. pneumon"}, "N. gonorrhoeae": {"tested_on": "N. gonorrhoeae", "experiment": "Disk diffusion, N. gonorrhoeae", "assay_type": "cell-based", "conditions": "Neisseria gonorrhoeae"}, "M. abscessus": {"tested_on": "M. abscessus", "experiment": "MIC by broth microdilution, M. abscessus", "assay_type": "cell-based", "conditions": "Mycobacteroides abscessus"}, "[5]": {"tested_on": "E coli carrying specific resistance determinants", "experiment": "MIC by broth microdilution, E coli carrying specific resistance determinants", "assay_type": "cell-based", "conditions": "for MIC50 / MIC: Escherichia coli"}},
  "note": "Where two headings read alike, the source gives them in different places.",
  "data": [
    {"compound": "NC[C@@H]1O[C@H](O[C@H]2[C@@H](O)[C@H](O[C@@H]3[C@@H](O)[C@H](N)C[C@H](N)[C@H]3O[C@H]3O[C@H](CO)[C@@H](O)[C@H](O)[C@H]3N)O[C@@H]2CO)[C@H](N)[C@@H](O)[C@@H]1O", "note": "[paromomycin, reference compound]", "values": [
      {"measurement": "IC50", "setting": "[1]; cytosolic, Table 3 (Example 1), read-out: IC50 Cyt", "value": 31, "unit": "µM"},
      {"measurement": "IC50", "setting": "[1]; cytosolic, Table 3 (Example 2), read-out: IC50 Cyt", "value": 31, "unit": "µM"},
      {"measurement": "IC50", "setting": "[1]; cytosolic, Table 4 (Example 3), read-out: IC50 Cyt", "value": 31, "unit": "µM"},
      {"measurement": "IC50", "setting": "[1]; ribosomes with a human cytosolic decoding site, read-out: IC50 Cytosolic", "value": 31, "unit": "µM"},
      {"measurement": "IC50", "setting": "[2]; mitochondrial, Table 3 (Example 1), read-out: IC50 Mit", "value": 140, "unit": "µM"},
      {"measurement": "IC50", "setting": "[2]; mitochondrial, Table 3 (Example 2), read-out: IC50 Mit", "value": 140, "unit": "µM"},
      {"measurement": "IC50", "setting": "[2]; mitochondrial, Table 4 (Example 3), read-out: IC50 Mit", "value": 140, "unit": "µM"},
      {"measurement": "IC50", "setting": "[2]; ribosomes with a human mitochondrial decoding site, read-out: IC50 Mitoch.", "value": 140, "unit": "µM"},
      {"measurement": "MIC", "setting": "M. smegmatis SZ380; SZ380, read-out: MIC M. smegmatis SZ380 WT, SZ380 WT, Table 5 (Example 3)", "value": 1, "unit": "µg/mL"},
      {"measurement": "MIC", "setting": "M. smegmatis SZ380; SZ380, read-out: MIC SZ380 M. smegmatis, strain SZ380 Mycobacterium smegmatis", "value": 1, "unit": "µg/mL"},
      {"measurement": "IC50", "setting": "[3]; Mycobacterium smegmatis ribosomes, read-out: IC50 Bacterial", "value": 0.04, "unit": "µM"},
      {"measurement": "IC50", "setting": "[3]; bacterial ribosome, Table 3 (Example 1), read-out: IC50 Bac", "value": 0.04, "unit": "µM"},
      {"measurement": "IC50", "setting": "[3]; bacterial ribosome, Table 3 (Example 2), read-out: IC50 Bac", "value": 0.04, "unit": "µM"},
      {"measurement": "IC50", "setting": "[3]; bacterial ribosome, Table 4 (Example 3), read-out: IC50 Bac", "value": 0.04, "unit": "µM"},
      {"measurement": "MIC", "setting": "[4]", "value": 1, "unit": "µg/mL"},
      {"measurement": "zone of inhibition at 25 nmol/disc", "setting": "N. gonorrhoeae", "value": 9, "unit": "mm"},
      {"measurement": "MIC", "setting": "M. abscessus; ATCC19977, read-out: MIC M. abscessus ATCC 19977 WT", "value": 8, "unit": "µg/mL"},
      {"measurement": "MIC", "setting": "M. abscessus; read-out: MIC M. abscessus ATCC", "value": 8, "unit": "µg/mL"},
      {"measurement": "MIC", "setting": "M. abscessus; read-out: MIC M. abscessus Clin. Isol.", "value": 32, "unit": "µg/mL"},
      {"measurement": "MIC", "setting": "M. abscessus; read-out: MIC M. abscessus clinical isolate", "value": 32, "unit": "µg/mL"},
      {"measurement": "MIC", "setting": "M. abscessus; read-out: MIC M. abscessus engineered Δeis2", "value": 4, "unit": "µg/mL"},
      {"measurement": "MIC APH(3′)-II", "setting": "[5]; APH(3′)-II, Table 3 (Example 2)", "value": ">64", "unit": "µg/mL"},
      {"measurement": "MIC50", "setting": "[5]; read-out: MIC50 E coli AG07 AAC(3), AG07 AAC(3), Table 2A (Example 2)", "value": "4 to 8", "unit": "µg/mL"},
      {"measurement": "MIC50", "setting": "[5]; read-out: MIC50 E coli AG09 AAC(6′), AG09 AAC(6′), Table 2A (Example 2)", "value": "8 to 16", "unit": "µg/mL"},
      {"measurement": "MIC50", "setting": "[5]; read-out: MIC50 E coli AG036 ANT(4′,4″), AG036 ANT(4′,4″), Table 2A (Example 2)", "value": 256, "unit": "µg/mL"},
      {"measurement": "MIC50", "setting": "[5]; read-out: MIC50 E coli AG036 ANT(4′,4″), AG036 ANT(4′,4″), Table 2B (Example 2)", "value": "32 to 64", "unit": "µg/mL"},
      {"measurement": "MIC50", "setting": "[5]; read-out: MIC50 E coli AG037 APH(3′)-III, AG037 APH(3′)-III, Table 2B (Example 2)", "value": "> 128", "unit": "µg/mL"},
      {"measurement": "MIC50", "setting": "[5]; read-out: MIC50 E coli AG037 APH(3′,5″), AG037 APH(3′,5″), Table 2A (Example 2)", "value": "> 256", "unit": "µg/mL"},
      {"measurement": "MIC50", "setting": "[5]; read-out: MIC50 E coli AG103 ArmA, AG103 ArmA, Table 2A (Example 2)", "value": 4, "unit": "µg/mL"},
      {"measurement": "MIC50", "setting": "[5]; read-out: MIC50 E coli AG103 armA, AG103 armA, Table 2B (Example 2)", "value": 2, "unit": "µg/mL"},
      {"measurement": "MIC50", "setting": "[5]; read-out: MIC50 E coli AG105 AAC(2′), AG105 AAC(2′), Table 2A (Example 2)", "value": "2 to 4", "unit": "µg/mL"},
      {"measurement": "MIC50", "setting": "[5]; read-out: MIC50 E coli pH414 AAC(6′)-I, pH414 AAC(6′)-I, Table 2B (Example 2)", "value": 2, "unit": "µg/mL"},
      {"measurement": "MIC50", "setting": "[5]; read-out: MIC50 E coli pH415 AAC(6′)-II, pH415 AAC(6′)-II, Table 2B (Example 2)", "value": "2 to 4", "unit": "µg/mL"},
      {"measurement": "MIC50", "setting": "[5]; read-out: MIC50 E coli pH421 APH(3′)-I, pH421 APH(3′)-I, Table 2B (Example 2)", "value": "> 128", "unit": "µg/mL"},
      {"measurement": "MIC50", "setting": "[5]; read-out: MIC50 E coli pH422 APH(3′)-II, pH422 APH(3′)-II, Table 2B (Example 2)", "value": "> 128", "unit": "µg/mL"},
      {"measurement": "MIC50", "setting": "[5]; read-out: MIC50 E coli pH423 APH(3)-VI, pH423 APH(3)-VI, Table 2B (Example 2)", "value": "> 128", "unit": "µg/mL"},
      {"measurement": "MIC50", "setting": "[5]; read-out: MIC50 E coli pH432 ANT(4′), pH432 ANT(4′), Table 2B (Example 2)", "value": "1 to 2", "unit": "µg/mL"},
      {"measurement": "MIC", "setting": "[5]; read-out: MIC AAC(6′)", "value": "2 to 4", "unit": "µg/mL"},
      {"measurement": "MIC", "setting": "[5]; read-out: MIC AG003 E. coli AAC(3)-II", "value": "2 to 4", "unit": "µg/mL"},
      {"measurement": "MIC", "setting": "[5]; read-out: MIC AG036 ANT(4′,4′′)", "value": "32 to 64", "unit": "µg/mL"},
      {"measurement": "MIC", "setting": "[5]; read-out: MIC AG037 APH(3′)-III", "value": "> 128", "unit": "µg/mL"},
      {"measurement": "MIC", "setting": "[5]; read-out: MIC AG037 E. coli APH(3′)-III", "value": "> 128", "unit": "µg/mL"},
      {"measurement": "MIC", "setting": "[5]; read-out: MIC AG103 armA", "value": 2, "unit": "µg/mL"},
      {"measurement": "MIC", "setting": "[5]; read-out: MIC AG163 E. coli APH(3′)-I", "value": "> 128", "unit": "µg/mL"},
      {"measurement": "MIC", "setting": "[5]; read-out: MIC AG166 E. coli APH(3′)-II", "value": "> 128", "unit": "µg/mL"},
      {"measurement": "MIC", "setting": "[5]; read-out: MIC ANT(4′)", "value": "32 to 64", "unit": "µg/mL"},
      {"measurement": "MIC", "setting": "[5]; read-out: MIC APH(3)-VI", "value": "> 64", "unit": "µg/mL"},
      {"measurement": "MIC", "setting": "[5]; read-out: MIC APH(3′)-I", "value": "> 64", "unit": "µg/mL"},
      {"measurement": "MIC", "setting": "[5]; read-out: MIC APH(3′)-II", "value": "> 64", "unit": "µg/mL"},
      {"measurement": "MIC", "setting": "[5]; read-out: MIC APH(3′)-III", "value": "> 64", "unit": "µg/mL"},
      {"measurement": "MIC", "setting": "[5]; read-out: MIC APH(3′)-VI", "value": "> 64", "unit": "µg/mL"},
      {"measurement": "MIC", "setting": "[5]; read-out: MIC E coli AG007 ANT(3″) AAC(3)-I", "value": 4, "unit": "µg/mL"},
      {"measurement": "MIC", "setting": "[5]; read-out: MIC E coli AG103 ArmA", "value": "1 to 2", "unit": "µg/mL"},
      {"measurement": "MIC", "setting": "[5]; read-out: MIC E coli AG106 AAC(2′)", "value": "> 64", "unit": "µg/mL"},
      {"measurement": "MIC", "setting": "[5]; read-out: MIC E coli AG163/164 APH(3′)-Ia", "value": "> 128", "unit": "µg/mL"},
      {"measurement": "MIC", "setting": "[5]; read-out: MIC E coli AG166 APH(3′)-IIa", "value": "> 128", "unit": "µg/mL"},
      {"measurement": "MIC", "setting": "[5]; read-out: MIC E coli AG173 AAC(3)-IV", "value": "2 to 4", "unit": "µg/mL"},
      {"measurement": "MIC", "setting": "[5]; read-out: MIC E coli AG182 AAC(3)-IV APH(3′)-Ia", "value": "> 128", "unit": "µg/mL"},
      {"measurement": "MIC", "setting": "[5]; read-out: MIC E. coli AAC(2′) AG106", "value": "> 64", "unit": "µg/mL"},
      {"measurement": "MIC", "setting": "[5]; read-out: MIC E. coli AAC(2′) pH434", "value": "> 64", "unit": "µg/mL"},
      {"measurement": "MIC", "setting": "[5]; read-out: MIC E. coli AG106 AAC(2′)-Ia", "value": "> 64", "unit": "µg/mL"},
      {"measurement": "MIC", "setting": "[5]; read-out: MIC E. coli pGB2armA armA", "value": 2, "unit": "µg/mL"},
      {"measurement": "MIC", "setting": "[5]; read-out: MIC E. coli pH434 AAC(2′)-Ib", "value": "> 64", "unit": "µg/mL"},
      {"measurement": "MIC", "setting": "[5]; read-out: MIC pH414 AAC(6′)-I", "value": 2, "unit": "µg/mL"}
    ]}
  ]
}
